{"source": "patent US10125135B2", "about": "“Chemical compounds” (AstraZeneca AB, priority 2016, dated 2018)", "key": {"[1]": {"experiment": "logD shake flask, 1-octanol/aqueous buffer", "type": "physicochemical", "details": "pH 7.4", "excerpt": "The lipophilicity of a drug is an important physical property which may influence many biological and metabolic properties of a compound. The distribution coefficient between 1-octanol and aqueous buffer, Log DO/W, at pH 7.4, is the most commonly used measurement of the lipophilicity of a compound. The current method for measurement of Log DO/W is based on the traditional shake flask technique, but with the modification of measuring compounds in mixtures of ten at a time using UPLC with quantitative mass spectrometry (MS) as a method to measure the relative octanol and aqueous concentrations. […] An additional QC sample Caffeine, with low Log D, are used and randomly placed in all runs. The method has been thoroughly validated against the previous shake flask methodologies."}, "[2]": {"target": "estrogen receptor (ERα) in CAMA-1 human breast cancer cell line (Homo sapiens (Human), UniProt P03372)", "sequence (P03372 whole entry)": "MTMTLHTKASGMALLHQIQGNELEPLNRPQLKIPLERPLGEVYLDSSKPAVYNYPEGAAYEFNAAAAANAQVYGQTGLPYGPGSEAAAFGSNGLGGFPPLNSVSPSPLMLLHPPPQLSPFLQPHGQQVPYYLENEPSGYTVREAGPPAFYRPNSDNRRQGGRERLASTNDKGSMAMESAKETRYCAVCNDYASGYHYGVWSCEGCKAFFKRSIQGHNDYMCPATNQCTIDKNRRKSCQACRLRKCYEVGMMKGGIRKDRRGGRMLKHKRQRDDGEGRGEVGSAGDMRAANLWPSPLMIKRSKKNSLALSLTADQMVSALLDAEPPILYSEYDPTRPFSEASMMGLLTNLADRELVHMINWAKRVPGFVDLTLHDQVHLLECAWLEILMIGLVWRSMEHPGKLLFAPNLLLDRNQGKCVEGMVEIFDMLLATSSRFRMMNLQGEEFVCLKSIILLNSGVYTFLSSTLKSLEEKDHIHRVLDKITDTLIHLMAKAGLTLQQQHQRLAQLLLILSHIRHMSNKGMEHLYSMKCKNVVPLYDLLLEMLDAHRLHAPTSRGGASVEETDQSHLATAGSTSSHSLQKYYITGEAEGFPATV", "experiment": "Western blotting assay, CAMA-1 cells", "type": "cell-based", "details": "100 nM compound, 48 h; normalised to vehicle (0%) and 100 nM fulvestrant (100%)", "method": "The ability of compounds to down-regulate estrogen receptor (ER) was assessed by western blotting using human breast cancer cell lines (MCF-7 and CAMA-1). Cells were plated into 12-well tissue culture-treated plates at 0.5×10^6/well in phenol red-free RPMI containing 2 mM L-glutamine and 5% (v/v) charcoal treated foetal calf serum (F6765, Sigma). Cells were incubated with compounds (100 nM) or vehicle control (0.1% DMSO) for 48 h at 37° C., 5% CO2 before washing once with PBS and lysing with 80 μl lysis buffer (25 mM Tris/HCl, 3 mM EDTA, 3 mM EGTA, 50 mM NaF, 2 mM sodium orthovanadate, 0.27 M sucrose, 10 mM β-glycerophosphate, 5 mM sodium pyrophosphate, 0.5% TritonX-100, pH 6.8) on ice.\nCells were scraped, sonicated and centrifuged prior to performing a protein assay (DC Bio-Rad Protein kit, 500-0116) and making samples to a protein concentration of 1-2 mg/m1 in lysis buffer containing 1× LDS Sample Buffer (NP0007, Invitrogen) and 1× NuPAGE sample reducing agent (NP0009, Invitrogen). Samples were boiled for 10 min at 95° C. and then frozen at −20° C. until ready for use.\n10-20 μg protein was loaded onto 26-well Criterion gels (BioRad 345-0034). Gels were run at 125 V for 1 hr 25 min in running buffer (24 mM Tris Base Sigma, 192 mM Glycine, 3.5 mM SDS, made up in distilled water). Gels were then transferred at 30V for 2 hr in transfer buffer (25 mM Tris, 192 mM Glycine, 20% (v/v) methanol, pH 8.3, made up in distilled water) onto nitrocellulose membrane. The blot was stained with Ponceau S (P7170, Sigma) and cut according to appropriate molecular weight markers.\nMembranes were blocked for 1 hour at room temp in 5% Marvel (w/v) in phosphate-buffered saline containing 0.05% Tween™ 20 (PBS/Tween). Blots were then incubated with anti-ERα (SP1) rabbit monoclonal antibody (Thermofisher) diluted 1:1000 at 4° C. overnight (with gentle shaking) followed by several washes with PBS/Tween. Secondary anti-rabbit HRP antibody (7074, CST) diluted 1:2000 dilution was incubated for 2 h at room temperature (with gentle shaking) followed by several washes with PBS/Tween. All antibodies were made up in 5% Marvel (w/v) in PBS/Tween.\nThe immunoblots were developed using Pierce WestDura chemiluminescent reagents (Thermo Scientific 34076) and developed/quantified on the G-box using Syngene software. Down-regulation of the ERα receptor was normalised to the vehicle control (0% down-regulation) and the 100 nM fulvestrant control (100% down-regulation) run within the same gel."}, "[3]": {"experiment": "Thermodynamic solubility, shake-flask", "type": "physicochemical", "details": "thermodynamic from solid; aqueous phosphate buffer pH 7.4, 24 hours at 25° C.", "method": "The thermodynamic solubility of a research compound is measured under standard conditions. It is a shake-flask approach that uses 10 mM DMSO solutions which are supplied from the Compound Managements liquid store and is a high throughput method. The dried compounds are equilibrated in an aqueous phosphate buffer (pH 7.4) for 24 hours at 25° C., the portion with the dissolved compound is then separated from the remains. The solutions are analyzed and quantified using UPLC/MS/MS, QC-samples are incorporated in each assay-run to ensure the quality of the assay."}}, "data": [{"smiles": "C[C@@H]1Cc2c(ccc3[nH]ncc23)[C@@H](c2ccc(OCCN3CC(CF)C3)cn2)N1CC(F)(F)F", "note": "[Example 49, (6S,8R)-6-(5-(2-(3-(fluoromethyl)azetidin-1-yl)ethoxy)pyridin-2-yl)-8-methyl-7-(2,2,2-trifluoroethyl)-6,7,8,9-tetrahydro-3H-pyrazolo[4,3-f]isoquinoline]", "values": [{"measurement": "logD", "setting": "[1]", "result": 3}, {"measurement": "CAMA1 Western % ER deg vs Fv", "setting": "[2]", "result": 77, "unit": "%"}, {"measurement": "solubility at 24 h", "setting": "[3]", "result": "> 1000", "unit": "µM"}]}, {"smiles": "COc1cc(OCCN2CC(CF)C2)ccc1[C@@H]1c2ccc3[nH]ncc3c2C[C@@H](C)N1CC1(F)CC1", "note": "[Example 6, (6S,8R)-7-((1-fluorocyclopropyl)methyl)-6-(4-(2-(3-(fluoromethyl)azetidin-1-yl)ethoxy)-2-methoxyphenyl)-8-methyl-6,7,8,9-tetrahydro-3H-pyrazolo[4,3-f]isoquinoline]", "values": [{"measurement": "logD", "setting": "[1]", "result": 2.8}, {"measurement": "CAMA1 Western % ER deg vs Fv", "setting": "[2]", "result": 87, "unit": "%"}, {"measurement": "solubility at 24 h", "setting": "[3]", "result": 957, "unit": "µM"}]}, {"smiles": "COc1cc(OCCN2CC(CF)C2)ccc1[C@@H]1c2ccc3[nH]ncc3c2C[C@@H](C)N1CC(C)C", "note": "[Example 9, (6S,8R)-6-(4-(2-(3-(fluoromethyl)azetidin-1-yl)ethoxy)-2-methoxyphenyl)-7-isobutyl-8-methyl-6,7,8,9-tetrahydro-3H-pyrazolo[4,3-f]isoquinoline]", "values": [{"measurement": "logD", "setting": "[1]", "result": 2.4}, {"measurement": "CAMA1 Western % ER deg vs Fv", "setting": "[2]", "result": 81, "unit": "%"}, {"measurement": "solubility at 24 h", "setting": "[3]", "result": "> 1000", "unit": "µM"}]}, {"smiles": "C[C@@H]1Cc2c(ccc3[nH]ncc23)[C@@H](c2ccc(OCCN3CC(CF)C3)cn2)N1CC1(F)CC1", "note": "[Example 8, (6S,8R)-7-((1-fluorocyclopropyl)methyl)-6-(5-(2-(3-(fluoromethyl)azetidin-1-yl)ethoxy)pyridin-2-yl)-8-methyl-6,7,8,9-tetrahydro-3H-pyrazolo[4,3-f]isoquinoline]", "values": [{"measurement": "logD", "setting": "[1]", "result": 2.6}, {"measurement": "CAMA1 Western % ER deg vs Fv", "setting": "[2]", "result": 86, "unit": "%"}, {"measurement": "solubility at 24 h", "setting": "[3]", "result": "> 1000", "unit": "µM"}]}, {"smiles": "C[C@@H]1Cc2c(ccc3[nH]ncc23)[C@@H](c2ccc(OCCN3CC(CF)C3)cn2)N1CC(F)F", "note": "[Example 51, (6S,8R)-7-(2,2-difluoroethyl)-6-(5-(2-(3-(fluoromethyl)azetidin-1-yl)ethoxy)pyridin-2-yl)-8-methyl-6,7,8,9-tetrahydro-3H-pyrazolo[4,3-f]isoquinoline]", "values": [{"measurement": "logD", "setting": "[1]", "result": 2.4}, {"measurement": "CAMA1 Western % ER deg vs Fv", "setting": "[2]", "result": 82, "unit": "%"}, {"measurement": "solubility at 24 h", "setting": "[3]", "result": 974, "unit": "µM"}]}, {"smiles": "COc1cc(OCCN2CC(CF)C2)ccc1[C@@H]1c2ccc3[nH]ncc3c2C[C@@H](C)N1CC(C)(C)F", "note": "[Example 5, (6S,8R)-7-(2-fluoro-2-methylpropyl)-6-(4-(2-(3-(fluoromethyl)azetidin-1-yl)ethoxy)-2-methoxyphenyl)-8-methyl-6,7,8,9-tetrahydro-3H-pyrazolo[4,3-f]isoquinoline]", "values": [{"measurement": "logD", "setting": "[1]", "result": 3.5}, {"measurement": "CAMA1 Western % ER deg vs Fv", "setting": "[2]", "result": 74, "unit": "%"}, {"measurement": "solubility at 24 h", "setting": "[3]", "result": 263, "unit": "µM"}]}]}
